Legend:
Assay type in all cases: in vivo
[1] = tested on: green foxtail (Setaria viridis L.), SETVI; assay: Test Example 2 post-emergence (foliage treatment) herbicidal activity, SETVI; details: 63 g a.i./ha
Method in brief: (§1)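 A small sprayer delivered the diluted WP or EC formulation (500 L/ha water, 0.1% v/v spreader) over emerged seedlings in upland soil pots. Damage relative to untreated plants was graded visually from 0 to 100% three weeks or so later (days 20-23).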

[2] = tested on: japanese ribbon wapato (Sagittaria pygmaea: SA GPY); assay: Test Example 3 water application herbicidal activity (paddy), SAGPY; details: 63 g a.i./ha, water application under submerged condition, tubers planted, visually observed 14th day after application; 0 = untreated control, 100 = complete kill
Method in brief: (§2)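 Submerged application in flooded paddy soil (3–4 cm water); weeds treated at 0.5-leaf stage, transplanted rice 4 d after transplanting. Scored visually as % growth control: weeds at 14 d, rice at 21 d.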

[3] = tested on: velvetleaf (Abutilon theophrasti): ABUTH; assay: Test Example 1 pre-emergence herbicidal activity, ABUTH; details: visually observed 20th to 23rd day after application
Method in brief: (§3)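 Pre-emergence soil spray: wettable powder or emulsifiable concentrate diluted in water (500 L/ha) applied one day after sowing in upland field soil. Visual growth-control rating (%) on days 20–23, 0 = untreated control, 100 = complete kill.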

[4] = tested on: japanese bulrush (Scirpus juncoides: SCPJO); assay: Test Example 3 water application herbicidal activity (paddy), SCPJO; details: 63 g a.i./ha, water application under submerged condition at 0.5 leaf stage, visually observed 14th day after application; 0 = untreated control, 100 = complete kill
Method in brief: as §2

[5] = tested on: corn (Zea mays L.), ZEAMX; assay: Test Example 2 post-emergence (foliage treatment) herbicidal activity, ZEAMX; details: 63 g a.i./ha
Method in brief: as §1

[6] = tested on: prickly sida (Sida spinosa L.): SEDSP; assay: Test Example 1 pre-emergence herbicidal activity, SIDSP; details: visually observed 20th to 23rd day after application
Method in brief: as §3

[7] = tested on: redroot pigweed (Amaranthus retroflexus L.): AMARE; assay: Test Example 1 pre-emergence herbicidal activity, AMARE; details: visually observed 20th to 23rd day after application
Method in brief: as §3

[8] = tested on: green foxtail (Setaria viridis L.): SETVI; assay: Test Example 1 pre-emergence herbicidal activity, SETVI; details: visually observed 20th to 23rd day after application
Method in brief: as §3

[9] = tested on: barnyardgrass (Echinochloa crus-galli L.): ECHCG; assay: Test Example 1 pre-emergence herbicidal activity, ECHCG; details: visually observed 20th to 23rd day after application
Method in brief: as §3

[10] = tested on: soybean (Glycine max Merr.): GLXMA; assay: Test Example 1 pre-emergence herbicidal activity, GLXMA; details: visually observed 20th to 23rd day after application
Method in brief: as §3

[11] = tested on: velvetleaf (Abutilon theophrasti), ABUTH; assay: Test Example 2 post-emergence (foliage treatment) herbicidal activity, ABUTH; details: 63 g a.i./ha
Method in brief: as §1

[12] = tested on: barnyardgrass (Echinochiloa oryzicola: ECHOR); assay: Test Example 3 water application herbicidal activity (paddy), ECHOR; details: 63 g a.i./ha, water application under submerged condition at 0.5 leaf stage, visually observed 14th day after application; 0 = untreated control, 100 = complete kill
Method in brief: as §2

[13] = tested on: corn (Zea mays L.): ZEAMX; assay: Test Example 1 pre-emergence herbicidal activity, ZEAMX; details: visually observed 20th to 23rd day after application
Method in brief: as §3

[14] = tested on: soybean (Glycine max Merr.), GLXMA; assay: Test Example 2 post-emergence (foliage treatment) herbicidal activity, GLXMA; details: 63 g a.i./ha
Method in brief: as §1

[15] = tested on: crabgrass (Digitaria sanguinalis L.), DIGSA; assay: Test Example 2 post-emergence (foliage treatment) herbicidal activity, DIGSA; details: 63 g a.i./ha
Method in brief: (§4)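 Visual growth-control score (0 = untreated, 100 = complete kill) taken 20th-23rd day after a foliar spray. Seedlings were grown in upland field soil and treated at leaf stage: barnyardgrass 1.1-2.1, crabgrass 1.0-2.0, redroot pigweed 0.1-1.5, rice 1.0-2. Spray volume was 500 L/ha water with 0.1% (v/v) agricultural spreader.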

[16] = tested on: prickly sida (Sida spinosa L.), SIDSP; assay: Test Example 2 post-emergence (foliage treatment) herbicidal activity, SIDSP; details: 63 g a.i./ha
Method in brief: as §1

[17] = tested on: wheat (Triticum aestivum L.), TRZAX; assay: Test Example 2 post-emergence (foliage treatment) herbicidal activity, TRZAX; details: 63 g a.i./ha
Method in brief: as §1

[18] = tested on: barnyardgrass (Echinochloa crus-galli L.), ECHCG; assay: Test Example 2 post-emergence (foliage treatment) herbicidal activity, ECHCG; details: 63 g a.i./ha
Method in brief: as §4

[19] = tested on: rice (Oryza sativa L.: ORYSA); assay: Test Example 3 water application herbicidal activity (paddy), transplanted rice ORYSA; details: 63 g a.i./ha, water application 4th day after transplantation of 2 leaf stage rice, visually observed 21st day after application; 0 = untreated control, 100 = complete kill
Text: Paddy field soil was put into a 1/1,000,000 ha pot and seeds of barnyardgrass (Echinochiloa oryzicola: ECHOR) and japanese bulrush (Scirpus juncoides: SCPJO) were sown and slightly covered with soil. Then the pot was left to stand still in a greenhouse in a state where the depth of flooding water was from 0.5 to 1 cm, and one day later, tubers of japanese ribbon wapato (Sagittaria pygmaea: SA GPY) were planted. Thereafter, the depth of flooding water was maintained at a level of from 3 to 4 cm, and when barnyardgrass and japanese bulrush reached a 0.5 leaf stage, an aqueous diluted solution of a wettable powder or emulsifiable concentrate having the compound of the present invention formulated in accordance with a usual formulation method, was uniformly applied under submerged condition by a pipette so that the dose of the active ingredient would be at a predetermined level. On the other hand, paddy filed soil was put into a 1/1,000,000 ha pot and puddled and leveled, and the depth of flooding water was from 3 to 4 cm. One day later, rice (Oryza sativa L.: ORYSA) of 2 leaf stage was transplanted in a depth of 3 cm. On the 4th day after the transplantation, the compound of the present invention was applied in the same manner as described above. On the 14th day after the application of the herbicide, the growth of barnyardgrass, japanese burlush and japanese ribbon wapato was visually observed and on the 21st day after the application of the herbicide, the growth of rice was visually observed, and the herbicidal effects were evaluated by growth controlling degrees (%) ranging from 0 (equivalent to the untreated control) to 100 (complete kill), whereby the results shown in Table 6, were obtained. Compound Nos. in Table 6 correspond to Compound Nos. in Table 1 and 2 given hereinbefore.

[20] = tested on: rice (Oryza sativa L.), ORYSA; assay: Test Example 2 post-emergence (foliage treatment) herbicidal activity, ORYSA; details: 63 g a.i./ha
Method in brief: as §4

[21] = tested on: crabgrass (Digitaria sanguinalis L.): DIGSA; assay: Test Example 1 pre-emergence herbicidal activity, DIGSA; details: visually observed 20th to 23rd day after application
Method in brief: as §3

[22] = tested on: wheat (Triticum aestivum L.): TRZAX; assay: Test Example 1 pre-emergence herbicidal activity, TRZAX; details: visually observed 20th to 23rd day after application
Method in brief: as §3

[23] = tested on: redroot pigweed (Amaranthus retroflexus L.), AMARE; assay: Test Example 2 post-emergence (foliage treatment) herbicidal activity, AMARE; details: 63 g a.i./ha
Method in brief: as §4

[24] = tested on: rice (Oryza sativa L.): ORYSA; assay: Test Example 1 pre-emergence herbicidal activity, ORYSA; details: visually observed 20th to 23rd day after application
Method in brief: as §3

Row | SMILES | growth controlling degree, SETVI [1] | growth controlling degrees (%) SAGPY [2] | growth controlling degrees (%) SCPJO [4] | growth controlling degree, ZEAMX [5] | growth controlling degree, ABUTH [11] | growth controlling degrees (%) ECHOR [12] | growth controlling degree, GLXMA [14] | growth controlling degree, DIGSP [15] | growth controlling degree, SIDSP [16] | growth controlling degree, TRZAX [17] | growth controlling degree, ECHCO [18] | growth controlling degrees (%) ORYSA [19] | growth controlling degree, ORYSA [20] | growth controlling degree, AMARE [23] | Pre-emergence Herbicidal Activity ABUTH (growth controlling degree) ([3]; Rate 125 g a.i./ha) | Pre-emergence Herbicidal Activity SIDSP (growth controlling degree) ([6]; Rate 125 g a.i./ha) | Pre-emergence Herbicidal Activity SETVI (growth controlling degree) ([8]; Rate 125 g a.i./ha) | Pre-emergence Herbicidal Activity ECHCG (growth controlling degree) ([9]; Rate 125 g a.i./ha) | Pre-emergence Herbicidal Activity GLXMA (growth controlling degree) ([10]; Rate 125 g a.i./ha) | Pre-emergence Herbicidal Activity ZEAMX (growth controlling degree) ([13]; Rate 125 g a.i./ha) | also measured
1 | COc1c(Cl)cc(F)c(-c2nn(C)c(OC(F)F)c2Cl)c1NC(=O)C=Cc1c(Cl)cccc1Cl [Compound 1-252] | 100% | 60% | 30% | 50% | 100% | 100% | 80% | 95% | 100% | 50% | 100% | 10% | 50% | 100% | – | – | – | – | – | – | Pre-emergence Herbicidal Activity ABUTH (growth controlling degree) ([3]; Rate 63 g a.i./ha): 50%; Pre-emergence Herbicidal Activity SIDSP (growth controlling degree) ([6]; Rate 63 g a.i./ha): 20%; Pre-emergence Herbicidal Activity AMARE (growth controlling degree) ([7]; Rate 63 g a.i./ha): 100%; Pre-emergence Herbicidal Activity SETVI (growth controlling degree) ([8]; Rate 63 g a.i./ha): 50%; Pre-emergence Herbicidal Activity ECHCG (growth controlling degree) ([9]; Rate 63 g a.i./ha): 30%; Pre-emergence Herbicidal Activity GLXMA (growth controlling degree) ([10]; Rate 63 g a.i./ha): 0%; Pre-emergence Herbicidal Activity ZEAMX (growth controlling degree) ([13]; Rate 63 g a.i./ha): 0%; Pre-emergence Herbicidal Activity DIGSP (growth controlling degree) ([21]; Rate 63 g a.i./ha): 40%; Pre-emergence Herbicidal Activity TRZAX (growth controlling degree) ([22]; Rate 63 g a.i./ha): 10%; Pre-emergence Herbicidal Activity ORYSA (growth controlling degree) ([24]; Rate 63 g a.i./ha): 10%
2 | COC(=O)Nc1c(OC)c(Cl)cc(F)c1-c1nn(C)c(OC(F)F)c1Cl [Compound 1-62] | 100% | 100% | 100% | 80% | 100% | 100% | 80% | 100% | 100% | 30% | 100% | 70% | 80% | 100% | – | – | – | – | – | – | Pre-emergence Herbicidal Activity ABUTH (growth controlling degree) ([3]; Rate 63 g a.i./ha): 100%; Pre-emergence Herbicidal Activity SIDSP (growth controlling degree) ([6]; Rate 63 g a.i./ha): 100%; Pre-emergence Herbicidal Activity AMARE (growth controlling degree) ([7]; Rate 63 g a.i./ha): 100%; Pre-emergence Herbicidal Activity SETVI (growth controlling degree) ([8]; Rate 63 g a.i./ha): 100%; Pre-emergence Herbicidal Activity ECHCG (growth controlling degree) ([9]; Rate 63 g a.i./ha): 100%; Pre-emergence Herbicidal Activity GLXMA (growth controlling degree) ([10]; Rate 63 g a.i./ha): 20%; Pre-emergence Herbicidal Activity ZEAMX (growth controlling degree) ([13]; Rate 63 g a.i./ha): 30%; Pre-emergence Herbicidal Activity DIGSP (growth controlling degree) ([21]; Rate 63 g a.i./ha): 100%; Pre-emergence Herbicidal Activity TRZAX (growth controlling degree) ([22]; Rate 63 g a.i./ha): 60%; Pre-emergence Herbicidal Activity ORYSA (growth controlling degree) ([24]; Rate 63 g a.i./ha): 80%
3 | COc1c(Cl)cc(F)c(-c2nn(C)c(OC(F)F)c2Cl)c1N(C(=O)CCc1ccccc1)C(=O)CCc1ccccc1 [Compound 1-18] | 80% | 50% | 40% | 60% | 100% | 100% | 60% | 70% | 100% | 10% | 70% | 30% | 60% | 100% | 40% | 60% | 50% | 70% | 20% | 0% | Pre-emergence Herbicidal Activity AMARE (growth controlling degree) ([7]; Rate 125 g a.i./ha): 100%; Pre-emergence Herbicidal Activity DIGSP (growth controlling degree) ([21]; Rate 125 g a.i./ha): 98%; Pre-emergence Herbicidal Activity TRZAX (growth controlling degree) ([22]; Rate 125 g a.i./ha): 30%; Pre-emergence Herbicidal Activity ORYSA (growth controlling degree) ([24]; Rate 125 g a.i./ha): 50%
4 | COCCOC(=O)N(C(=O)OCCOC)c1c(OC)c(Cl)cc(F)c1-c1nn(C)c(OC(F)F)c1Cl [Compound 1-54] | 80% | 30% | 30% | 50% | 100% | 98% | 60% | 70% | 100% | 30% | 90% | 40% | 98% | 100% | 80% | 95% | 100% | 20% | 10% | 0% | Pre-emergence Herbicidal Activity AMARE (growth controlling degree) ([7]; Rate 125 g a.i./ha): 100%; Pre-emergence Herbicidal Activity DIGSP (growth controlling degree) ([21]; Rate 125 g a.i./ha): 100%; Pre-emergence Herbicidal Activity TRZAX (growth controlling degree) ([22]; Rate 125 g a.i./ha): 20%; Pre-emergence Herbicidal Activity ORYSA (growth controlling degree) ([24]; Rate 125 g a.i./ha): 30%
5 | CCOC(=O)CN(C=O)c1c(OC)c(Cl)cc(F)c1-c1nn(C)c(OC(F)F)c1Cl [Compound 1-19] | 30% | 20% | 30% | 0% | 90% | 70% | 60% | 30% | 90% | 10% | 30% | 30% | 20% | 100% | 20% | 50% | 10% | 0% | 0% | 20% | Pre-emergence Herbicidal Activity DIGSP (growth controlling degree) ([21]; Rate 125 g a.i./ha): 50%; Pre-emergence Herbicidal Activity TRZAX (growth controlling degree) ([22]; Rate 125 g a.i./ha): 0%; Pre-emergence Herbicidal Activity ORYSA (growth controlling degree) ([24]; Rate 125 g a.i./ha): 0%

Source: patent publication US20050245399A1, “Pyrazole derivatives as herbicidal compositions containing them” (ISHIHARA SANGYO KAISHA, LTD., priority 2004, published 2005)
